Experiments:
Assay type in all cases: in vivo
Cotton [1] = assay: Preemergence Herbicidal Activity, Cotton; conditions: Gossypium hirsutum, pre-emergence
Excerpt: (§1) The herbicidal data in the following Tables 3 and 4 was obtained in the manner described in PCT published application no. WO 85/01939, previously mentioned, usually employing solutions of the herbicidal compound in 50/50 acetone/water mixtures. In those tables, the test compounds are identified by numbers which correspond to those in Table 1, "kg/ha" is kilograms per hectare, and "% C" is percent control.

Soybean [2] = assay: Preemergence Herbicidal Activity, Soybean; conditions: Glycine max, pre-emergence
Excerpt: (§2) The herbicidal data in the following Tables 3 and 4 was obtained in the manner described in PCT published application no. […] In those tables, the test compounds are identified by numbers which correspond to those in Table 1, "kg/ha" is kilograms per hectare, and "% C" is percent control.

Field Corn [3] = assay: Preemergence Herbicidal Activity, Field Corn; conditions: Zea mays, pre-emergence
Excerpt: as §2

Wheat [4] = assay: Preemergence Herbicidal Activity, Wheat; conditions: Triticum aestivum, pre-emergence
Excerpt: as §2

Field Bindweed [5] = assay: Preemergence Herbicidal Activity, Field Bindweed; conditions: pre-emergence, 8.0 kg/ha
Excerpt: as §1

Morningglory [6] = assay: Preemergence Herbicidal Activity, Morningglory; conditions: Ipomoea, pre-emergence
Excerpt: as §1

Velvetleaf [7] = assay: Preemergence Herbicidal Activity, Velvetleaf; conditions: Abutilon theophrasti, pre-emergence
Excerpt: as §1

Barnyardgrass [8] = assay: Preemergence Herbicidal Activity, Barnyardgrass; conditions: Echinochloa crus-galli, pre-emergence
Excerpt: as §2

Green Foxtail [9] = assay: Preemergence Herbicidal Activity, Green Foxtail; conditions: Setaria viridis, pre-emergence
Excerpt: as §2

Johnsongrass [10] = assay: Preemergence Herbicidal Activity, Johnsongrass; conditions: Sorghum halepense, pre-emergence
Excerpt: as §2

Cotton [11] = assay: Postemergence Herbicidal Activity, Cotton; conditions: Gossypium hirsutum, post-emergence
Excerpt: as §1

Soybean [12] = assay: Postemergence Herbicidal Activity, Soybean; conditions: Glycine max, post-emergence
Excerpt: as §2

Field Corn [13] = assay: Postemergence Herbicidal Activity, Field Corn; conditions: Zea mays, post-emergence
Excerpt: as §2

Wheat [14] = assay: Postemergence Herbicidal Activity, Wheat; conditions: Triticum aestivum, post-emergence
Excerpt: as §2

Field Bindweed [15] = assay: Postemergence Herbicidal Activity, Field Bindweed; conditions: post-emergence, 8.0 kg/ha
Excerpt: as §1

Morningglory [16] = assay: Postemergence Herbicidal Activity, Morningglory; conditions: Ipomoea, post-emergence
Excerpt: as §1

Velvetleaf [17] = assay: Postemergence Herbicidal Activity, Velvetleaf; conditions: Abutilon theophrasti, post-emergence
Excerpt: as §1

Barnyardgrass [18] = assay: Postemergence Herbicidal Activity, Barnyardgrass; conditions: Echinochloa crus-galli, post-emergence
Excerpt: as §2

Green Foxtail [19] = assay: Postemergence Herbicidal Activity, Green Foxtail; conditions: Setaria viridis, post-emergence
Excerpt: as §2

Johnsongrass [20] = assay: Postemergence Herbicidal Activity, Johnsongrass; conditions: Sorghum halepense, post-emergence
Excerpt: as §2

Rice = assay: Preemergence Herbicidal Activity, Rice; conditions: Oryza sativa, pre-emergence, 0.5 kg/ha
Excerpt: as §2

SMILES: CCS(=O)(=O)N(c1cc(-n2nnn(CCCF)c2=O)ccc1Cl)S(=O)(=O)CC [Compound 18, 1-[4-chloro-3-[bis(N--ethylsulfonyl)-amino]phenyl]-1,4-dihydro-4-(3-fluoropropyl)-5H--tetrazol-5-one]
- plant injury at 8000 g/ha (Cotton [1]; 8.0 kg/ha): 100%
- plant injury at 8000 g/ha (Soybean [2]; 8.0 kg/ha): 10%
- plant injury at 8000 g/ha (Field Corn [3]; 8.0 kg/ha): 0%
- plant injury at 8000 g/ha (Wheat [4]; 8.0 kg/ha): 0%
- pest or weed control at 8000 g/ha (Field Bindweed [5]): 30%
- pest or weed control at 8000 g/ha (Morningglory [6]; 8.0 kg/ha): 40%
- pest or weed control at 8000 g/ha (Velvetleaf [7]; 8.0 kg/ha): 95%
- pest or weed control at 8000 g/ha (Barnyardgrass [8]; 8.0 kg/ha): 20%
- pest or weed control at 8000 g/ha (Green Foxtail [9]; 8.0 kg/ha): 10%
- pest or weed control at 8000 g/ha (Johnsongrass [10]; 8.0 kg/ha): 40%
- plant injury at 8000 g/ha (Cotton [11]; 8.0 kg/ha): 60%
- plant injury at 8000 g/ha (Soybean [12]; 8.0 kg/ha): 60%
- plant injury at 8000 g/ha (Field Corn [13]; 8.0 kg/ha): 30%
- plant injury at 8000 g/ha (Wheat [14]; 8.0 kg/ha): 10%
- pest or weed control at 8000 g/ha (Field Bindweed [15]): 50%
- pest or weed control at 8000 g/ha (Morningglory [16]; 8.0 kg/ha): 70%
- pest or weed control at 8000 g/ha (Velvetleaf [17]; 8.0 kg/ha): 95%
- pest or weed control at 8000 g/ha (Barnyardgrass [18]; 8.0 kg/ha): 30%
- pest or weed control at 8000 g/ha (Green Foxtail [19]; 8.0 kg/ha): 30%
- pest or weed control at 8000 g/ha (Johnsongrass [20]; 8.0 kg/ha): 30%

SMILES: CS(=O)(=O)N(c1cc(-n2nnn(CCCF)c2=O)c(F)cc1Cl)S(C)(=O)=O [Compound 9]
- plant injury at 1000 g/ha (Cotton [1]; 1.0 kg/ha): 100%
- plant injury at 1000 g/ha (Soybean [2]; 1.0 kg/ha): 50%
- plant injury at 1000 g/ha (Field Corn [3]; 1.0 kg/ha): 100%
- plant injury at 1000 g/ha (Wheat [4]; 1.0 kg/ha): 90%
- pest or weed control at 1000 g/ha (Morningglory [6]; 1.0 kg/ha): 100%
- pest or weed control at 1000 g/ha (Velvetleaf [7]; 1.0 kg/ha): 100%
- pest or weed control at 1000 g/ha (Barnyardgrass [8]; 1.0 kg/ha): 100%
- pest or weed control at 1000 g/ha (Green Foxtail [9]; 1.0 kg/ha): 100%
- pest or weed control at 1000 g/ha (Johnsongrass [10]; 1.0 kg/ha): 80%
- plant injury at 1000 g/ha (Cotton [11]; 1.0 kg/ha): 100%
- plant injury at 1000 g/ha (Soybean [12]; 1.0 kg/ha): 30%
- plant injury at 1000 g/ha (Field Corn [13]; 1.0 kg/ha): 30%
- plant injury at 1000 g/ha (Wheat [14]; 1.0 kg/ha): 80%
- pest or weed control at 1000 g/ha (Morningglory [16]; 1.0 kg/ha): 100%
- pest or weed control at 1000 g/ha (Velvetleaf [17]; 1.0 kg/ha): 100%
- pest or weed control at 1000 g/ha (Barnyardgrass [18]; 1.0 kg/ha): 100%
- pest or weed control at 1000 g/ha (Green Foxtail [19]; 1.0 kg/ha): 60%
- pest or weed control at 1000 g/ha (Johnsongrass [20]; 1.0 kg/ha): 70%

SMILES: CCS(=O)(=O)N(c1cc(-n2nnn(CCCF)c2=O)c(F)cc1Cl)S(=O)(=O)CC [Compound 21, 1-[4-chloro-2-fluoro-5-[bis(N--ethylsulfonyl)amino]phenyl]-1,4-dihydro-4-(3-fluoropropyl)-5H--tetrazol-5-one]
- plant injury at 500 g/ha (Cotton [1]; 0.5 kg/ha): 95%
- plant injury at 500 g/ha (Soybean [2]; 0.5 kg/ha): 20%
- plant injury at 500 g/ha (Field Corn [3]; 0.5 kg/ha): 90%
- plant injury at 500 g/ha (Rice): 80%
- plant injury at 500 g/ha (Wheat [4]; 0.5 kg/ha): 95%
- pest or weed control at 500 g/ha (Morningglory [6]; 0.5 kg/ha): 95%
- pest or weed control at 500 g/ha (Velvetleaf [7]; 0.5 kg/ha): 100%
- pest or weed control at 500 g/ha (Barnyardgrass [8]; 0.5 kg/ha): 100%
- pest or weed control at 500 g/ha (Green Foxtail [9]; 0.5 kg/ha): 100%
- pest or weed control at 500 g/ha (Johnsongrass [10]; 0.5 kg/ha): 100%

Source: patent publication US4868321A, “Isothiocyanate intermediates” (FMC Corporation, priority 1988, dated 1989)
